Experiments:
[1] = target: T1, CD73 enzymatic activity expressed on the cell surface of MDA-MB-231 cells (Homo sapiens, UniProt P21589); assay: Inhibition of CD73 enzymatic activity on the cell surface (Cell Titer Glo (CTG) experiment), MDA-MB-231 cells; format: cell-based; conditions: MDA-MB-231 cells endogenously expressing CD73, AMP, 37° C. for 2 hours, CTG readout; read-out: Cellular activity IC50
T1 construct: Human breast cancer cells MDA-MB-231 that endogenously express CD73 were used; host or cells: MDA-MB-231
T1 sequence (P21589 27-549): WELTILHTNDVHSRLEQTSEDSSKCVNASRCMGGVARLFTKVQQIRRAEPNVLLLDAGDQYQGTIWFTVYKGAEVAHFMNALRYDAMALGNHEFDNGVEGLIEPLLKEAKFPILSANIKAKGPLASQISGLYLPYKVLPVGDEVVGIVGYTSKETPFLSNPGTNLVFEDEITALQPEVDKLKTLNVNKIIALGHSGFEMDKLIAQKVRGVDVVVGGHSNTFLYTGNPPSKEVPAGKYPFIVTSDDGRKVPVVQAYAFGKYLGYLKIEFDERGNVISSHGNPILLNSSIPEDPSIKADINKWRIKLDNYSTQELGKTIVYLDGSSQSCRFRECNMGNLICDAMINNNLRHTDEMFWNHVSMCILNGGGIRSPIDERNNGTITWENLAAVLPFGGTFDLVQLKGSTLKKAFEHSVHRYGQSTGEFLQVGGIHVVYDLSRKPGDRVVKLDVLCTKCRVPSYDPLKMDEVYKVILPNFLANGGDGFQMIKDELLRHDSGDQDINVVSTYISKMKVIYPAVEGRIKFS
Protocol: Human breast cancer cells MDA-MB-231 that endogenously express CD73 were used in the present invention to evaluate the inhibition of the compound against the CD73 enzymatic activity expressed on the cell surface. The cells used were from the Cell Bank of the Chinese Academy of Sciences. The specific experimental procedures were as follows:
1. Before the test, MDA-MB231 cells were seeded to a 96-well plate at 20000 cells/well;
2. In RPMI1640, 10% fetal bovine serum (Gibco, 10099-141), placed in a 5% CO2 incubator at 37° C. overnight (the cells were washed three times by using a serum-free RPMI medium right before the test):
3. 50 μl of serum-free media containing the compounds at different concentrations were added to the cells and incubated for 15 minutes;
4. 25 μL of 1.2 mM AMP was added for incubation at 37° C. for 2 hours, 25 μL of supernatant was then collected from the cells and mix with 25 μL of 100 μM ATP, and then the concentration of AMP in the samples was determined by CTG (Promega, #G7573);
5. Then, a reduction ratio of the substrate AMP level in the cell culture supernatant collected after the reaction was quantitatively determined to evaluate the inhibitory effects of the examples of the present invention and the positive compounds against the CD73 enzymatic activity on the cell surface;
6. Finally, the concentration of the compound leading to half maximal inhibition of enzymatic activity (IC50) was determined using a four-parameter non-linear logistic model curve fit in Graphpad Prism.

[2] = target: T2, CD73 (Homo sapiens, UniProt P21589); assay: In vitro enzymatic activity against CD73 (malachite green test using soluble CD73); format: biochemical; conditions: soluble CD73 36 ng/mL, 50 μM AMP, 30 minutes at 25° C.
T2 construct: purchased R&D systems 5795-EN-010
T2 sequence (P21589 27-547 limits assumed): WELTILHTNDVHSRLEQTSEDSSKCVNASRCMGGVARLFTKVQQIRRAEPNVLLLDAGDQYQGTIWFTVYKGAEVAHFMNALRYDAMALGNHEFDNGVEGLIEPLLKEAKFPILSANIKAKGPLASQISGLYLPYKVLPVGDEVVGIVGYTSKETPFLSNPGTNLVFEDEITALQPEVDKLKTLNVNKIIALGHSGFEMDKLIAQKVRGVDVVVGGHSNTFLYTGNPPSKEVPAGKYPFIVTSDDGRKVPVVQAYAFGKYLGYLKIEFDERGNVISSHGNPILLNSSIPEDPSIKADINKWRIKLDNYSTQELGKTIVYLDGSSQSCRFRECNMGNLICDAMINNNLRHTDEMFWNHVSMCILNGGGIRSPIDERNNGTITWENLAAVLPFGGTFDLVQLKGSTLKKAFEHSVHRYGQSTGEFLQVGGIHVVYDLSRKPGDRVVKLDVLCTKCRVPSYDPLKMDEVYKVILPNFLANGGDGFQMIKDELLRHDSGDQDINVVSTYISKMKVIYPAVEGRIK
Protocol: The malachite green test using soluble CD73, which is synthesized in vitro was used in the present invention to determine the characteristics of inhibitory activity of the compounds against CD73. The specific experimental procedures were as following:
1. The enzyme reaction in this experiment was carried out in 384-well plates, and CD73 (R&D systems #5795-EN-010) at a concentration of 36 ng/mL, the compounds at different concentrations and 50 μM AMP were incubated for 30 minutes at 25° C. in a 40 uL reaction system (consisting of 25 mM Tris pH 7.5, 5 mM MgCl2, and 0.005% Tween-20);
2. Then, 10 μL of malachite green solution (Sigma) was added to each well to terminate the reaction;
3. The concentration of resulting inorganic phosphate was determined according to the instructions of the reagent manufacturer;
4. The enzymatic activity of CD73 was calculated based on the concentration of the product, and then IC50 values were determined by non-linear regression analysis of the inhibition percentage of the compounds of the present invention at different concentrations.

| IC50 [1] [nM] | IC50 [2] [nM] | Compound |
| --- | --- | --- |
| 0.55 | 5.5 | O=P(O)(O)CP(=O)(O)OC[C@H]1C[C@@H](c2ccc3c(N[C@@H]4CCc5ccccc54)nc(Cl)nn23)[C@H](O)[C@@H]1O [Example 25, (((((1R,2R,3S,4S)-4-(2-chloro-4-(((R)-2,3-dihydro-1H-inden-1-yl)amino)pyrrolo[2,1-f][1,2,4]triazin-7-yl)-2,3-dihydroxycyclopentyl)methoxy)(hydroxy)phosphoryl)methyl)phosphonic acid] |
| 2.54 | 82.6 | O=P(O)(O)CP(=O)(O)OC[C@H]1C[C@@H](c2ccc3c(N[C@H]4CCc5cc(F)ccc54)nc(Cl)nn23)[C@H](O)[C@@H]1O [Example 27, (((((1R,2R,3S,4S)-4-(2-chloro-4-(((S)-5-fluoro-2,3-dihydro-1H-inden-1-yl)amino)pyrrolo[2,1-f][1,2,4]triazin-7-yl)-2,3-dihydroxycyclopentyl)methoxy)(hydroxy)phosphoryl)methyl)phosphonic acid] |
| 0.252 | 3.95 | O=P(O)(O)CP(=O)(O)OC[C@H]1C[C@@H](c2ccc3c(N[C@@H]4CCc5cc(F)ccc54)nc(Cl)nn23)[C@H](O)[C@@H]1O [Example 28, (((((1R,2R,3S,4S)-4-(2-chloro-4-(((R)-5-fluoro-2,3-dihydro-1H-inden-1-yl)amino)pyrrolo[2,1-f][1,2,4]triazin-7-yl)-2,3-dihydroxycyclopentyl)methoxy)(hydroxy)phosphoryl)methyl)phosphonic acid] |
| 0.71 | 15 | O=P(O)(O)CP(=O)(O)OC[C@H]1C[C@@H](c2ccc3c(N[C@H]4CCc5ccc(F)cc54)nc(Cl)nn23)[C@H](O)[C@@H]1O [Example 29, (((((1R,2R,3S,4S)-4-(2-chloro-4-(((S)-6-fluoro-2,3-dihydro-1H-inden-1-yl)amino)pyrrolo[2,1-f][1,2,4]triazin-7-yl)-2,3-dihydroxycyclopentyl)methoxy)(hydroxy)phosphoryl)methyl)phosphonic acid] |
| 0.19 | 3.4 | O=P(O)(O)CP(=O)(O)OC[C@H]1C[C@@H](c2ccc3c(N[C@@H]4CCc5ccc(F)cc54)nc(Cl)nn23)[C@H](O)[C@@H]1O [Example 30, (((((1R,2R,3S,4S)-4-(2-chloro-4-(((R)-6-fluoro-2,3-dihydro-1H-inden-1-yl)amino)pyrrolo[2,1-f][1,2,4]triazin-7-yl)-2,3-dihydroxycyclopentyl)methoxy)(hydroxy)phosphoryl)methyl)phosphonic acid] |
| 0.95 | 48.6 | O=P(O)(O)CP(=O)(O)OC[C@H]1C[C@@H](c2ccc3c(N[C@H]4CCc5cc(F)c(F)cc54)nc(Cl)nn23)[C@H](O)[C@@H]1O [Example 31, (((((1R,2R,3S,4S)-4-(2-chloro-4-(((S)-5,6-difluoro-2,3-dihydro-1H-inden-1-yl)amino)pyrrolo[2,1-f][1,2,4]triazin-7-yl)-2,3-dihydroxycyclopentyl)methoxy)(hydroxy)phosphoryl)methyl)phosphonic acid] |
| 0.27 | 4.08 | O=P(O)(O)CP(=O)(O)OC[C@H]1C[C@@H](c2ccc3c(N[C@@H]4CCc5cc(F)c(F)cc54)nc(Cl)nn23)[C@H](O)[C@@H]1O [Example 32, (((((1R,2R,3S,4S)-4-(2-chloro-4-(((R)-5,6-difluoro-2,3-dihydro-1H-inden-1-yl)amino)pyrrolo[2,1-f][1,2,4]triazin-7-yl)-2,3-dihydroxycyclopentyl)methoxy)(hydroxy)phosphoryl)methyl)phosphonic acid] |
| 2.4 | 27.9 | O=P(O)(O)CP(=O)(O)OC[C@H]1C[C@@H](c2ccc3c(N[C@H]4CCc5cc(F)cc(F)c54)nc(Cl)nn23)[C@H](O)[C@@H]1O [Example 33, (((((1R,2R,3S,4S)-4-(2-chloro-4-(((S)-5,7-difluoro-2,3-dihydro-1H-inden-1-yl)amino)pyrrolo[2,1-f][1,2,4]triazin-7-yl)-2,3-dihydroxycyclopentyl)methoxy)(hydroxy)phosphoryl)methyl)phosphonic acid] |
| 0.22 | 1.01 | O=P(O)(O)CP(=O)(O)OC[C@H]1C[C@@H](c2ccc3c(N[C@@H]4CCc5cc(F)cc(F)c54)nc(Cl)nn23)[C@H](O)[C@@H]1O [Example 34, (((((1R,2R,3S,4S)-4-(2-chloro-4-(((R)-5,7-difluoro-2,3-dihydro-1H-inden-1-yl)amino)pyrrolo[2,1-f][1,2,4]triazin-7-yl)-2,3-dihydroxycyclopentyl)methoxy)(hydroxy)phosphoryl)methyl)phosphonic acid] |
| 5.73 | 354 | O=P(O)(O)CP(=O)(O)OC[C@H]1C[C@@H](c2ccc3c(N[C@H]4CCc5ccc(C(F)(F)F)cc54)nc(Cl)nn23)[C@H](O)[C@@H]1O [Example 35, (((((1R,2R,3S,4S)-4-(2-chloro-4-(((S)-6-(trifluoromethyl)-2,3-dihydro-1H-inden-1-yl)amino)pyrrolo[2,1-f][1,2,4]triazin-7-yl)-2,3-dihydroxycyclopentyl)methoxy)(hydroxy)phosphoryl)methyl)phosphonic acid] |
| 0.63 | 21.7 | O=P(O)(O)CP(=O)(O)OC[C@H]1C[C@@H](c2ccc3c(N[C@@H]4CCc5ccc(C(F)(F)F)cc54)nc(Cl)nn23)[C@H](O)[C@@H]1O [Example 36, (((((1R,2R,3S,4S)-4-(2-chloro-4-(((R)-6-(trifluoromethyl)-2,3-dihydro-1H-inden-1-yl)amino)pyrrolo[2,1-f][1,2,4]triazin-7-yl)-2,3-dihydroxycyclopentyl)methoxy)(hydroxy)phosphoryl)methyl)phosphonic acid] |
| 60 | > 1000 | O=P(O)(O)CP(=O)(O)OC[C@H]1C[C@@H](c2ccc3c(N[C@H]4CCc5cc(Cl)ccc54)nc(Cl)nn23)[C@H](O)[C@@H]1O [Example 37, (((((1R,2R,3S,4S)-4-(2-chloro-4-(((S)-5-chloro-2,3-dihydro-1H-inden-1-yl)amino)pyrrolo[2,1-f][1,2,4]triazin-7-yl)-2,3-dihydroxycyclopentyl)methoxy)(hydroxy)phosphoryl)methyl)phosphonic acid] |
| 0.266 | 7.8 | O=P(O)(O)CP(=O)(O)OC[C@H]1C[C@@H](c2ccc3c(N[C@@H]4CCc5cc(Cl)ccc54)nc(Cl)nn23)[C@H](O)[C@@H]1O [Example 38, (((((1R,2R,3S,4S)-4-(2-chloro-4-(((R)-5-chloro-2,3-dihydro-1H-inden-1-yl)amino)pyrrolo[2,1-f][1,2,4]triazin-7-yl)-2,3-dihydroxycyclopentyl)methoxy)(hydroxy)phosphoryl)methyl)phosphonic acid] |
